For eight compounds, IC50 results are on record in patent publication US20220388990A1, “INHIBITORS OF CYCLIN-DEPENDENT KINASES” (Kinnate Biopharma Inc., priority 2019, published 2022).

SMILES strings stand for the structures.

For one test, the target named is T1, CDK12 wt/CycK (Homo sapiens, UniProt Q9NYV4).
T1 construct: either as full-length or enzymatically active fragments
Briefly: Radiometric protein kinase assay (33PanQinase), assay condition 2, thiol containing conditions. In kind it is biochemical. To be noted: thiol containing conditions (1.2 mM DTT), ATP 0.3 μM. Here is the method:
Example 1—Assay condition 2 (thiol containing conditions)
Objective: The IC50 profile of test compounds was determined using protein kinases. IC50 values were measured by testing 10 concentrations (1×10^−04M, 3×10^−05M, 1×10^−05M, 3×10^−06M, 1×10^−06M, 3×10^−07M, 1×10^−07M, 3×10^−08M, 1×10^−08M, and 3×10^−09M) of each compound in singlicate.
Test compounds: The compounds were provided as pre-weighed powders in vials. The compounds were dissolved to 1×10^−02M by adding DMSO. 100 μl of each of the resulting stock solutions were transferred into column 2 of four 96 well “master plates”
Prior to testing, the 1×10^−02M stock solutions in column 2 of the master plates were subjected to a serial, semi-logarithmic dilution using 100% DMSO as a solvent. […] Column 1 and 7 were filled with 100% DMSO as controls. Subsequently, 2×10 μl from each well of the serial diluted copy plates were aliquoted with a 96 channel pipettor into two identical sets of “compound dilution plates”.
In the process, 90 μl H2O were added to each well of a set of compound dilution plates. To minimize potential precipitation, the H2O was added to each plate only a few minutes before the transfer of the compound solutions into the assay plates. Each plate was shaken thoroughly, resulting in a “compound dilution plate/ 10% DMSO”.
For the assays, 5 μl solution from each well of the compound dilution plates/10% DMSO were transferred into the assay plates. The final volume of the assay was 50 μl. All compounds were tested at 10 final assay concentrations in the range from 1×10^−04M to 3×10^−09M, in singlicate. The final DMSO concentration in the reaction cocktails was 1% in all cases.
Recombinant protein kinases: All protein kinases were expressed in Sf9 insect cells or in E.coli as recombinant GST-fusion proteins or His-tagged proteins, either as full-length or enzymatically active fragments. All kinases were produced from human cDNAs and purified by either GSH-affinity chromatography or immobilized metal. Affinity tags were removed from a number of kinases during purification. The purity of the protein kinases was examined by SDS-PAGE/Coomassie staining, the identity was checked by mass spectroscopy.
Protein kinase assay: A radiometric protein kinase assay (^33PanQinase® Activity Assay) was used for measuring the kinase activity. All kinase assays were performed in 96-well FlashPlates™ from PerkinElmer (Boston, MA, USA) in a 50 μl reaction volume. The reaction cocktail was pipetted in four steps in the following order: • 20 μl of assay buffer (standard buffer) • 5μl of ATP solution (in H2O) • 5μl of test compound (in 10% DMSO) • 20 μl enzyme/substrate mix
The assay for all protein kinases contained 70 mM HEPES-NaOH pH 7.5, 3 mM MgCl2, 3 mM MnCl2, 3 μM Na-orthovanadate, 1.2 mM DTT, 50 μg/ml PEG20000, ATP (variable concentrations, corresponding to the apparent ATP-K. of the respective kinase), [γ-^33P]-ATP (approx. 9×10^05cpm per well), protein kinase, and substrate.
The following amounts of enzyme and substrate were used per well:
The reaction cocktails were incubated at 30° C. for 60 minutes. The reaction was stopped with 50 μl of 2% (v/v) H3PO4, plates were aspirated and washed two times with 200 μl 0.9% (w/v) NaCl. Incorporation of ^33Pi was determined with a microplate scintillation counter (Microbeta, Wallac). All assays were performed with a BeckmanCoulter/SAGIANTM Core System.
Evaluation of raw data: The median value of the counts in column 1 (n=8) of each assay plate was defined as “low control”. This value reflects unspecific binding of radioactivity to the plate in the absence of a protein kinase but in the presence of the substrate. The median value of the counts in column 7 of each assay plate (n=8) was taken as the “high control”, i.e. full activity in the absence of any inhibitor. The difference between high and low control was taken as 100% activity. […]

Test [1] concerns panel of 1,151 cancer cell lines. To be noted: in 52% of 1,151 cancer cell lines; cited from earlier work.

T1 sequence (Q9NYV4 whole entry, the tested form may be a part): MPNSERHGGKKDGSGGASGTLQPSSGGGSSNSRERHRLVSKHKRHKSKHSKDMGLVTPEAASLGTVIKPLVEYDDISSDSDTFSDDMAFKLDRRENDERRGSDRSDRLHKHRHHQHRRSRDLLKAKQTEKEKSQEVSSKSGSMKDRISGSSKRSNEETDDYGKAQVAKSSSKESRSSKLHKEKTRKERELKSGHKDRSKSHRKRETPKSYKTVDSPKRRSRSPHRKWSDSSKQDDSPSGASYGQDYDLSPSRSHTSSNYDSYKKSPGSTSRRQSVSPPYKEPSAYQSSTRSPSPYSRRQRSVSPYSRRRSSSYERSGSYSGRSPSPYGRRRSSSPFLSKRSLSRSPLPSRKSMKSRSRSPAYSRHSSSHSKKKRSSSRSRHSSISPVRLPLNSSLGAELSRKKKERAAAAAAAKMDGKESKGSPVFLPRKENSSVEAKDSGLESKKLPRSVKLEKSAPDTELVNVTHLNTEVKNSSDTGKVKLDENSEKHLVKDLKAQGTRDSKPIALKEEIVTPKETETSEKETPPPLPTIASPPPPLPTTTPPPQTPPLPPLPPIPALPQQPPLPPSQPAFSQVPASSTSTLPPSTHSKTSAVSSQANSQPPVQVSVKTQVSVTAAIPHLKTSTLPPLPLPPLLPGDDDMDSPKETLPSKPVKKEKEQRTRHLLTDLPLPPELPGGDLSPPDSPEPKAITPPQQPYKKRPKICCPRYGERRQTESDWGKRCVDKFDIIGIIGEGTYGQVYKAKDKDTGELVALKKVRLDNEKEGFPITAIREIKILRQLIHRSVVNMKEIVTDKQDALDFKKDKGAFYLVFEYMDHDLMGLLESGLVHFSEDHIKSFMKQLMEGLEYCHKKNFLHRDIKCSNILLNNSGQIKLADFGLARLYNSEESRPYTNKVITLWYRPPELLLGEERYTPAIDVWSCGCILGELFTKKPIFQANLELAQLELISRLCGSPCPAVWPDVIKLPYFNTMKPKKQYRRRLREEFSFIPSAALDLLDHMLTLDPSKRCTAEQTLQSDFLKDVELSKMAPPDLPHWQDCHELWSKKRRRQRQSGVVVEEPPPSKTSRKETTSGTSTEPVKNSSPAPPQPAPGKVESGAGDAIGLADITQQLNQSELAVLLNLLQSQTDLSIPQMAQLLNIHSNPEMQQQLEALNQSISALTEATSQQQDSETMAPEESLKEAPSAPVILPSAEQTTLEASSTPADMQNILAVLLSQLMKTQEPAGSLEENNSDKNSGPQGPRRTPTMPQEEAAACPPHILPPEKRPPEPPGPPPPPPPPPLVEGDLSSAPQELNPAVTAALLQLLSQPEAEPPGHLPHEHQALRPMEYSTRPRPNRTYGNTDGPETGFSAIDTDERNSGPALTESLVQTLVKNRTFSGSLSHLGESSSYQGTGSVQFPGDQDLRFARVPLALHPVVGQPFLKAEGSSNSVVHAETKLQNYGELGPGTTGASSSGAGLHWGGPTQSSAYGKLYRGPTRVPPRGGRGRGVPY
T1 sequence (O75909 whole entry partner, the tested form may be a part): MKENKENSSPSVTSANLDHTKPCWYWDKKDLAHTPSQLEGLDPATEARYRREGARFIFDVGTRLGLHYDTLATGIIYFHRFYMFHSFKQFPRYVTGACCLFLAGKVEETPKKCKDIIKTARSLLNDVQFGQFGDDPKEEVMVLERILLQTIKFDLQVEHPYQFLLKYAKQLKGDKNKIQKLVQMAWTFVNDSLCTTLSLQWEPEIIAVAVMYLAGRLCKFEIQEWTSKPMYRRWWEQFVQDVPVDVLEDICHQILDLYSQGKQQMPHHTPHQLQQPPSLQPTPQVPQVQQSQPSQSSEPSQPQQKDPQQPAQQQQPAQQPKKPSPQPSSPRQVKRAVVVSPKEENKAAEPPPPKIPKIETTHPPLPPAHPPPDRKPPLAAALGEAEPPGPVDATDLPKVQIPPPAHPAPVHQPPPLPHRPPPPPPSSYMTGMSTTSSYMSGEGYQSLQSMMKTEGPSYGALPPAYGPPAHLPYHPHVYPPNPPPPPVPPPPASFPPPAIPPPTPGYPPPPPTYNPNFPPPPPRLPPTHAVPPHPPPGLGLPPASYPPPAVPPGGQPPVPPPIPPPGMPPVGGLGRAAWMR

As a reminder, the IC50 is the concentration that gives 50% inhibition. `Cc1nc(N2CC[C@@H](Nc3ncc(Cl)c(-c4cnn5ccccc45)n3)C2)c2ccc(NC(=O)/C=C/CN(C)C)cc2n1` [Example 35, (R,E)—N-(4-(3-((5-chloro-4-(pyrazolo[1,5-a]pyridin-3-yl)pyrimidin-2-yl)amino)pyrrolidin-1-yl)-2-methylquinazolin-7-yl)-4-(dimethylamino)but-2-enamide]: the IC50 at CDK12 wt/CycK is not above 100 nM.

Turning to `C=CC(=O)N(C)c1ccc2c(N3CC[C@@H](Nc4ncc(C#N)cn4)C3)nccc2c1` [Example 36, (R)—N-(1-(3-((5-cyanopyrimidin-2-yl)amino)pyrrolidin-1-yl)isoquinolin-6-yl)-N-methylacrylamide], the IC50 against CDK12 wt/CycK was not above 100 nM.

The compound `C=CC(=O)Nc1ccc2c(N3CC[C@@H](Nc4ncc(C#N)cn4)C3)nc(N3CCOCC3)cc2c1` [Example 37, (R)—N-(1-(3-((5-cyanopyrimidin-2-yl)amino)pyrrolidin-1-yl)-3-morpholinoisoquinolin-6-yl)acrylamide] returned an IC50 at CDK12 wt/CycK not above 100 nM.

`C=CC(=O)N(C)c1ccc2c(N3CC[C@@H](Nc4ncc(C#N)cn4)C3)nc(C)nc2c1` [Example 39, (R)—N-(4-(3-((5-cyanopyrimidin-2-yl)amino)pyrrolidin-1-yl)-2-methylquinazolin-7-yl)-N-methylacrylamide] came in with an IC50 at CDK12 wt/CycK not above 100 nM.

Take `C=CC(=O)N(C)c1ccc2c(N3CC[C@@H](Nc4ncc(Br)cn4)C3)nc(C)nc2c1` [Example 40, (R)—N-(4-(3-((5-bromopyrimidin-2-yl)amino)pyrrolidin-1-yl)-2-methylquinazolin-7-yl)-N-methylacrylamide]: the IC50 at CDK12 wt/CycK is not above 100 nM.

`C=CC(=O)N(C)c1ccc2c(N3CC[C@@H](Nc4ncc(C#N)cn4)C3)nc(N3CCN(C)CC3)nc2c1` [Example 41, (R)—N-(4-(3-((5-cyanopyrimidin-2-yl)amino)pyrrolidin-1-yl)-2-(4-methylpiperazin-1-yl)quinazolin-7-yl)-N-methylacrylamide] gave an IC50 against CDK12 wt/CycK not above 100 nM.

The compound `C=CC(=O)N(C)c1ccc2c(N3CC[C@@H](Nc4ncc(C#N)cn4)C3)nc(C3=CCN(C)CC3)cc2c1` [Example 42, (R)—N-(1-(3-((5-cyanopyrimidin-2-yl)amino)pyrrolidin-1-yl)-3-(1-methyl-1,2,3,6-tetrahydropyridin-4-yl)isoquinolin-6-yl)-N-methylacrylamide] registered a half-inhibitory concentration (IC50) against CDK12 wt/CycK not above 100 nM.

As to `CN(C)C/C=C/C(=O)Nc1ccc(C(=O)Nc2cccc(Nc3ncc(Cl)c(-c4c[nH]c5ccccc45)n3)c2)cc1` [THZ1], the IC50 in test [1] was less than 200 nM.
